{"source": "patent US4057684A", "about": "“Alkyl amino-glucopyranoside derivative and process for producing the same” (priority 1975, dated 1977)", "key": {"[1]": {"system": "Nakahara-Fukuoka sarcoma (NFS)", "assay": "antitumor effect against Nakahara-Fukuoka sarcoma (NFS) implanted in mice", "assay_type": "in vivo, mouse (ICR)", "from_the_text": "(§1) Results of pharmacological studies for amino-glucopyranoside [I] according to the invention are described below. The test compounds which were used included methyl N-carbamyl-N'-(2-chloroethyl)-N'-nitroso-2-amino-2-deoxy-α-D-glucopyranoside and methyl N-carbamyl-N'-(2-chloroethyl)-N'-nitroso-6-amino-6-deoxy-α-D-glucopyranoside (hereinafter abbreviated to 2MCαG and 6MCαG, respectively). The control compounds which were employed were 1-(2-chloroethyl)-3-cyclohexyl-1-nitrosoourea (hereinafter abbreviated to CCNU), which had been widely applied as a control compound in such a pharmacological test of the streptozotocin derivatives, and GCNU referred to previously. The tumor systems which were used were leukemia L-1210, Nakahara-Fukuoka sarcoma, adenocarcinoma-755, ascites sarcoma 180 and Ehrlich ascites carcinoma (hereinafter abbreviated to L-1210, NFS, Ca-755, S-180A and EAC, respectively), and the antitumor activities were determined by a procedure of the National Cancer Center, Tokyo (A. Hoshi et al.: Farumashia 9, 464(1973)). The test animals which were used were ICR and BDF1 mice.\n(§2) ^a Treatment was initiated 24 hr after implantation of tumor (day 1):\n(§3) D1~5 = qd, day 1~5; D1 = day 1 only.\n(§4) ^b T/C is expressed as the tumor weight ratio in solid tumors or tota\n(§5) packed cell volume ratio in ascites tumors of treated/control."}, "[2]": {"assay": "peripheral white blood cell counts (bone marrow toxicity) and survival in normal male ICR mice", "assay_type": "in vivo, mouse (ICR)", "procedure": "Such peripheral white blood cell counts were performed as follows: Normal male ICR mice were used in groups of tens and the test compounds for treatment were made into their respective solutions. 2MCαG and 6MCαG were dissolved in physiological saline solutions, while CCNU and GCNU were suspended in 0.5% CMC aqueous solution and 50% PEG aqueous solution, respectively. A single administration at volume of 1 ml per 100 g body weight of animal (0.1 ml/10 g) was given intraperitoneally, and the peripheral white blood cell counts were performed 3, 8 and 15 days after administration of the test compounds."}, "[3]": {"system": "adenocarcinoma-755 (Ca-755)", "assay": "antitumor effect against adenocarcinoma-755 (Ca-755) implanted in mice", "assay_type": "in vivo, mouse (BDF1)", "from_the_text": "as §1, §2, §3, §4, §5"}, "[4]": {"system": "solid as well as ascites tumor systems", "assay": "antitumor activity in the tumor systems (overall)", "assay_type": "in vivo, mouse", "settings": "mouse, in vivo", "from_the_text": "as §1"}, "leukemia L-1210": {"system": "leukemia L-1210", "assay": "increase in life span and survival of leukemia L-1210 implanted mice", "assay_type": "in vivo, mouse (BDF1)", "from_the_text": "as §1, §2, §3\n^d % increase in life span (mean survival time) over controls.\n^e 60 days survivors/total in treated group."}, "bacteria": {"system": "bacteria", "assay": "antibacterial activity, broth dilution method"}, "[5]": {"assay": "blood sugar level / diabetogenic activity", "assay_type": "in vivo, rat (male Wister)", "settings": "rat, in vivo"}, "[6]": {"assay": "acute toxicity (LD50) in mice", "assay_type": "in vivo, mouse (ICR)"}, "[7]": {"settings": "12.5 mg/kg/day ip D1~5, ICR mice"}, "[8]": {"settings": "25.0 mg/kg/day ip D1~5, ICR mice"}, "[9]": {"settings": "35.0 mg/kg/day ip D1~5, ICR mice"}, "[10]": {"settings": "50.0 mg/kg/day ip D1~5, ICR mice"}, "[11]": {"settings": "6.3 mg/kg/day ip D1~5, BDF1 mice"}, "[12]": {"settings": "12.5 mg/kg/day ip D1~5, BDF1 mice"}, "[13]": {"settings": "25.0 mg/kg/day ip D1~5, BDF1 mice"}, "[14]": {"settings": "50.0 mg/kg/day ip D1~5, BDF1 mice"}}}
{"smiles": "CO[C@H]1O[C@H](CNC(=O)N(CCCl)N=O)[C@@H](O)[C@H](O)[C@H]1O", "note": "[Example 6MCαG, methyl N-carbamyl-N'-(2-chloroethyl)-N'-nitroso-6-amino-6-deoxy-α-D-glucopyranoside]", "values": [{"measurement": "Activity", "setting": "[1]; [7]", "value": "- (100~71% = -)"}, {"measurement": "T/C", "setting": "[1]; [7]", "value": 77.8, "unit": "%"}, {"measurement": "Activity", "setting": "[1]; [8]", "value": "+ (70~51% = +)"}, {"measurement": "T/C", "setting": "[1]; [8]", "value": 61.6, "unit": "%"}, {"measurement": "Activity", "setting": "[1]; [9]", "value": "++ (50~21% = ++)"}, {"measurement": "T/C", "setting": "[1]; [9]", "value": 38.8, "unit": "%"}, {"measurement": "Activity", "setting": "[1]; [10]", "value": "Toxic"}, {"measurement": "T/C", "setting": "[1]; [10]", "value": 34.1, "unit": "%"}, {"measurement": "died/used", "setting": "[1]; [10]", "value": "6/6"}, {"measurement": "antitumor effect compared with CCNU", "setting": "[1]; ip, 5 successive days", "value": "more active than CCNU"}, {"measurement": "Death rate (death/used)", "setting": "[2]; 40 mg/kg ip single", "value": "0/10"}, {"measurement": "Average count of WBC", "setting": "[2]; 40 mg/kg ip single, day 3", "value": "73.2±3.5 x 10^2 WBC/mm^3"}, {"measurement": "Average count of WBC", "setting": "[2]; 40 mg/kg ip single, day 8", "value": "105.7±3.8 x 10^2 WBC/mm^3"}, {"measurement": "Average count of WBC", "setting": "[2]; 40 mg/kg ip single, day 15", "value": "136.9±10.0 x 10^2 WBC/mm^3"}, {"measurement": "Death rate (death/used)", "setting": "[2]; 60 mg/kg ip single", "value": "0/10"}, {"measurement": "Average count of WBC", "setting": "[2]; 60 mg/kg ip single, day 3", "value": "41.1±4.1 x 10^2 WBC/mm^3"}, {"measurement": "Average count of WBC", "setting": "[2]; 60 mg/kg ip single, day 8", "value": "73.5±5.8 x 10^2 WBC/mm^3"}, {"measurement": "Average count of WBC", "setting": "[2]; 60 mg/kg ip single, day 15", "value": "110.4±6.3 x 10^2 WBC/mm^3"}, {"measurement": "Death rate (death/used)", "setting": "[2]; 100 mg/kg ip single", "value": "2/10"}, {"measurement": "Average count of WBC", "setting": "[2]; 100 mg/kg ip single, day 3", "value": "31.2±2.5 x 10^2 WBC/mm^3"}, {"measurement": "Average count of WBC", "setting": "[2]; 100 mg/kg ip single, day 8", "value": "71.9±4.9 x 10^2 WBC/mm^3"}, {"measurement": "Average count of WBC", "setting": "[2]; 100 mg/kg ip single, day 15", "value": "99.8±10.8 x 10^2 WBC/mm^3"}, {"measurement": "Death rate (death/used)", "setting": "[2]; 150 mg/kg ip single", "value": "10/10"}, {"measurement": "Average count of WBC", "setting": "[2]; 150 mg/kg ip single, day 3", "value": "28.1±3.8 x 10^2 WBC/mm^3"}, {"measurement": "Average count of WBC", "setting": "[2]; 150 mg/kg ip single, day 8", "value": "61.0 x 10^2 WBC/mm^3"}, {"measurement": "incidence of leukopenia", "setting": "[2]; LD10 doses", "value": "comparatively mild with rapid return to pretreatment levels"}, {"measurement": "acute toxicity compared with GCNU or CCNU", "setting": "[2]; mouse, in vivo", "value": "much lower than that of either GCNU or CCNU"}, {"measurement": "bone marrow toxicity", "setting": "[2]; mouse, in vivo", "value": "improved bone marrow toxicity"}, {"measurement": "bone marrow toxicity compared with CCNU", "setting": "[2]; mouse, in vivo", "value": "less toxic"}, {"measurement": "bone marrow toxicity compared with GCNU", "setting": "[2]; mouse, in vivo", "value": "equivalent values as GCNU"}, {"measurement": "Activity", "setting": "[3]; [11]", "value": "+ (70~51% = +)"}, {"measurement": "T/C", "setting": "[3]; [11]", "value": 53.4, "unit": "%"}, {"measurement": "Activity", "setting": "[3]; [12]", "value": "+++ (20~0% = +++)"}, {"measurement": "T/C", "setting": "[3]; [12]", "value": 16.3, "unit": "%"}, {"measurement": "Activity", "setting": "[3]; [13]", "value": "+++ (20~0% = +++)"}, {"measurement": "T/C", "setting": "[3]; [13]", "value": 7.6, "unit": "%"}, {"measurement": "Activity", "setting": "[3]; [14]", "value": "Toxic"}, {"measurement": "T/C", "setting": "[3]; [14]", "value": 0, "unit": "%"}, {"measurement": "died/used", "setting": "[3]; [14]", "value": "6/6"}, {"measurement": "antitumor effect compared with CCNU", "setting": "[3]; ip, 5 successive days", "value": "more active than CCNU"}, {"measurement": "antitumor activity", "setting": "[4]", "value": "activity against solid as well as ascites tumor systems"}, {"measurement": "ILS", "setting": "leukemia L-1210; 3.0 mg/kg/day ip D1~5", "value": "> 292", "unit": "%"}, {"measurement": "Survivors (60 days survivors/total)", "setting": "leukemia L-1210; 3.0 mg/kg/day ip D1~5", "value": "2/6"}, {"measurement": "ILS", "setting": "leukemia L-1210; 6.0 mg/kg/day ip D1~5", "value": "> 639", "unit": "%"}, {"measurement": "Survivors (60 days survivors/total)", "setting": "leukemia L-1210; 6.0 mg/kg/day ip D1~5", "value": "3/6"}, {"measurement": "ILS", "setting": "leukemia L-1210; 6.0 mg/kg/day po D1~5", "value": "> 580", "unit": "%"}, {"measurement": "Survivors (60 days survivors/total)", "setting": "leukemia L-1210; 6.0 mg/kg/day po D1~5", "value": "4/6"}, {"measurement": "ILS", "setting": "leukemia L-1210; 10.0 mg/kg/day ip D1~5", "value": "> 645", "unit": "%"}, {"measurement": "Survivors (60 days survivors/total)", "setting": "leukemia L-1210; 10.0 mg/kg/day ip D1~5", "value": "3/6"}, {"measurement": "ILS", "setting": "leukemia L-1210; 12.5 mg/kg/day ip D1~5", "value": "> 520", "unit": "%"}, {"measurement": "Survivors (60 days survivors/total)", "setting": "leukemia L-1210; 12.5 mg/kg/day ip D1~5", "value": "4/6"}, {"measurement": "ILS", "setting": "leukemia L-1210; 12.5 mg/kg/day po D1~5", "value": "> 570", "unit": "%"}, {"measurement": "Survivors (60 days survivors/total)", "setting": "leukemia L-1210; 12.5 mg/kg/day po D1~5", "value": "4/6"}, {"measurement": "ILS", "setting": "leukemia L-1210; 25.0 mg/kg/day ip D1~5", "value": "> 615", "unit": "%"}, {"measurement": "Survivors (60 days survivors/total)", "setting": "leukemia L-1210; 25.0 mg/kg/day ip D1~5", "value": "4/6"}, {"measurement": "ILS", "setting": "leukemia L-1210; 25.0 mg/kg/day po D1~5", "value": "> 620", "unit": "%"}, {"measurement": "Survivors (60 days survivors/total)", "setting": "leukemia L-1210; 25.0 mg/kg/day po D1~5", "value": "4/6"}, {"measurement": "ILS", "setting": "leukemia L-1210; 35.0 mg/kg ip D1 only", "value": "> 717", "unit": "%"}, {"measurement": "Survivors (60 days survivors/total)", "setting": "leukemia L-1210; 35.0 mg/kg ip D1 only", "value": "6/6"}, {"measurement": "ILS", "setting": "leukemia L-1210; 40.0 mg/kg/day ip D1~5", "value": "> 237", "unit": "%"}, {"measurement": "Survivors (60 days survivors/total)", "setting": "leukemia L-1210; 40.0 mg/kg/day ip D1~5", "value": "2/6"}, {"measurement": "ILS", "setting": "leukemia L-1210; 45.0 mg/kg ip D1 only", "value": "> 717", "unit": "%"}, {"measurement": "Survivors (60 days survivors/total)", "setting": "leukemia L-1210; 45.0 mg/kg ip D1 only", "value": "6/6"}, {"measurement": "ILS", "setting": "leukemia L-1210; 6-25 mg/kg/day, 5 successive administrations, ip or orally", "value": "520-645%"}, {"measurement": "activity against L-1210 compared with CCNU and GCNU", "setting": "leukemia L-1210; mouse, in vivo", "value": "more active against L-1210"}, {"measurement": "ILS", "setting": "leukemia L-1210; single ip, 35-45 mg/kg", "value": 717, "unit": "%"}, {"measurement": "animals survived", "setting": "leukemia L-1210; single ip, 35-45 mg/kg", "value": "all six animals survived"}, {"measurement": "antibacterial activity", "setting": "bacteria", "value": "free from diabetogenic and antibacterial activities"}, {"measurement": "diabetogenic activity", "setting": "[5]", "value": "free from diabetogenic"}, {"measurement": "toxicity compared with 2MCαG", "setting": "[6]; by LD50, single administration", "value": "less toxic than 2MCαG"}, {"measurement": "LD50", "setting": "[6]; mouse, in vivo, single administration", "value": 91, "unit": "mg/kg"}]}
